# In patent US8969516B2, “Method of hydrolysis of peptide bond” (priority 2006, dated 2015):
# Assay: MALDI-TOF screening of Ni^2+ dependent hydrolysis in a combinatorial peptide library
# Type: physicochemical
# Settings: Ni^2+ 2 mM, pH 8.2, 10 mM Tris, score=24/tm
# Method in brief: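 MALDI-TOF read-out: appearance of Ser/Thr-X-His-Z-Lys-Phe-Leu-NH2 product signals, plus loss of substrate signals, checked by eye at 2, 4, 6, 8 h. Conditions: 1 mM peptide mixture, 2 mM Ni2+, 10 mM Tris pH 8.2, 37 or 45 °C.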
# [1] = CH3CO-Gly-Ala-Thr-X-His-Z-Lys-Phe-Leu-NH2 library, 37° C.
# [2] = CH3CO-Gly-Ala-Thr-X-His-Z-Lys-Phe-Leu-NH2 library, 45° C.
# [3] = CH3CO-Gly-Ala-Ser-X-His-Z-Lys-Phe-Leu-NH2 library, 37° C.
# [4] = CH3CO-Gly-Ala-Ser-X-His-Z-Lys-Phe-Leu-NH2 library, 45° C.
substance,measurement,setting,value
Ac-GATAHGKFL-NH2 [TAHG],hydrolysis score from MALDI-TOF screening,[1],0 (a score of 0 if no trace of the product of hydrolysis was seen after 8 hours of incubation)
same,hydrolysis score from MALDI-TOF screening,[2],0 (a score of 0 if no trace of the product of hydrolysis was seen after 8 hours of incubation)
Ac-GATPHLKFL-NH2 [TPHL],hydrolysis score from MALDI-TOF screening,[2],0 (a score of 0 if no trace of the product of hydrolysis was seen after 8 hours of incubation)
Ac-GASWHSKFL-NH2 [SWHS],hydrolysis score from MALDI-TOF screening,[3],0 (a score of 0 if no trace of the product of hydrolysis was seen after 8 hours of incubation)
same,hydrolysis score from MALDI-TOF screening,[4],0 (a score of 0 if no trace of the product of hydrolysis was seen after 8 hours of incubation)
Ac-GATKHAKFL-NH2 [TKHA],hydrolysis score from MALDI-TOF screening,[1],0 (a score of 0 if no trace of the product of hydrolysis was seen after 8 hours of incubation)
same,hydrolysis score from MALDI-TOF screening,[2],3 (a score of 3 for detection at 8 hours)
Ac-GATRHAKFL-NH2 [TRHA],hydrolysis score from MALDI-TOF screening,[1],0 (a score of 0 if no trace of the product of hydrolysis was seen after 8 hours of incubation)
same,hydrolysis score from MALDI-TOF screening,[2],3 (a score of 3 for detection at 8 hours)
Ac-GASLHTKFL-NH2 [SLHT],hydrolysis score from MALDI-TOF screening,[3],0 (a score of 0 if no trace of the product of hydrolysis was seen after 8 hours of incubation)
same,hydrolysis score from MALDI-TOF screening,[4],0 (a score of 0 if no trace of the product of hydrolysis was seen after 8 hours of incubation)
Ac-GASHHGKFL-NH2 [SHHG],hydrolysis score from MALDI-TOF screening,[3],3 (a score of 3 for detection at 8 hours)
same,hydrolysis score from MALDI-TOF screening,[4],0 (a score of 0 if no trace of the product of hydrolysis was seen after 8 hours of incubation)
Ac-GASAHTKFL-NH2 [SAHT],hydrolysis score from MALDI-TOF screening,[3],0 (a score of 0 if no trace of the product of hydrolysis was seen after 8 hours of incubation)
same,hydrolysis score from MALDI-TOF screening,[4],0 (a score of 0 if no trace of the product of hydrolysis was seen after 8 hours of incubation)
Ac-GASLHYKFL-NH2 [SLHY],hydrolysis score from MALDI-TOF screening,[3],0 (a score of 0 if no trace of the product of hydrolysis was seen after 8 hours of incubation)
same,hydrolysis score from MALDI-TOF screening,[4],3 (a score of 3 for detection at 8 hours)
Ac-GATSHHKFL-NH2 [TSHH],hydrolysis score from MALDI-TOF screening,[1],0 (a score of 0 if no trace of the product of hydrolysis was seen after 8 hours of incubation)
same,hydrolysis score from MALDI-TOF screening,[2],0 (a score of 0 if no trace of the product of hydrolysis was seen after 8 hours of incubation)
Ac-GASAHDKFL-NH2 [SAHD],hydrolysis score from MALDI-TOF screening,[3],0 (a score of 0 if no trace of the product of hydrolysis was seen after 8 hours of incubation)
same,hydrolysis score from MALDI-TOF screening,[4],0 (a score of 0 if no trace of the product of hydrolysis was seen after 8 hours of incubation)
Ac-GASRHYKFL-NH2 [SRHY],hydrolysis score from MALDI-TOF screening,[3],4 (a score of 4 for detection at 6 hours)
same,hydrolysis score from MALDI-TOF screening,[4],6 (a score of 6 for detection at 4 hours)
Ac-GASVHNKFL-NH2 [SVHN],hydrolysis score from MALDI-TOF screening,[3],0 (a score of 0 if no trace of the product of hydrolysis was seen after 8 hours of incubation)
same,hydrolysis score from MALDI-TOF screening,[4],0 (a score of 0 if no trace of the product of hydrolysis was seen after 8 hours of incubation)
Ac-GATWHAKFL-NH2 [TWHA],hydrolysis score from MALDI-TOF screening,[1],0 (a score of 0 if no trace of the product of hydrolysis was seen after 8 hours of incubation)
same,hydrolysis score from MALDI-TOF screening,[2],0 (a score of 0 if no trace of the product of hydrolysis was seen after 8 hours of incubation)
Ac-GASAHRKFL-NH2 [SAHR],hydrolysis score from MALDI-TOF screening,[3],3 (a score of 3 for detection at 8 hours)
same,hydrolysis score from MALDI-TOF screening,[4],6 (a score of 6 for detection at 4 hours)
Ac-GASWHTKFL-NH2 [SWHT],hydrolysis score from MALDI-TOF screening,[3],0 (a score of 0 if no trace of the product of hydrolysis was seen after 8 hours of incubation)
same,hydrolysis score from MALDI-TOF screening,[4],0 (a score of 0 if no trace of the product of hydrolysis was seen after 8 hours of incubation)
Ac-GASMHYKFL-NH2 [SMHY],hydrolysis score from MALDI-TOF screening,[3],3 (a score of 3 for detection at 8 hours)
same,hydrolysis score from MALDI-TOF screening,[4],4 (a score of 4 for detection at 6 hours)
Ac-GASQHVKFL-NH2 [SQHV],hydrolysis score from MALDI-TOF screening,[3],0 (a score of 0 if no trace of the product of hydrolysis was seen after 8 hours of incubation)
same,hydrolysis score from MALDI-TOF screening,[4],4 (a score of 4 for detection at 6 hours)
Ac-GATRHIKFL-NH2 [TRHI],hydrolysis score from MALDI-TOF screening,[1],6 (a score of 6 for detection at 4 hours)
same,hydrolysis score from MALDI-TOF screening,[2],"12 (a score of 12, if it was seen to be partially hydrolysed at 2 hours)"
Ac-GASHHHKFL-NH2 [SHHH],hydrolysis score from MALDI-TOF screening,[3],0 (a score of 0 if no trace of the product of hydrolysis was seen after 8 hours of incubation)
same,hydrolysis score from MALDI-TOF screening,[4],0 (a score of 0 if no trace of the product of hydrolysis was seen after 8 hours of incubation)
Ac-GASYHMKFL-NH2 [SYHM],hydrolysis score from MALDI-TOF screening,[3],0 (a score of 0 if no trace of the product of hydrolysis was seen after 8 hours of incubation)
same,hydrolysis score from MALDI-TOF screening,[4],0 (a score of 0 if no trace of the product of hydrolysis was seen after 8 hours of incubation)
Ac-GASMHNKFL-NH2 [SMHN],hydrolysis score from MALDI-TOF screening,[3],0 (a score of 0 if no trace of the product of hydrolysis was seen after 8 hours of incubation)
same,hydrolysis score from MALDI-TOF screening,[4],0 (a score of 0 if no trace of the product of hydrolysis was seen after 8 hours of incubation)
Ac-GASNHNKFL-NH2 [SNHN],hydrolysis score from MALDI-TOF screening,[3],0 (a score of 0 if no trace of the product of hydrolysis was seen after 8 hours of incubation)
same,hydrolysis score from MALDI-TOF screening,[4],0 (a score of 0 if no trace of the product of hydrolysis was seen after 8 hours of incubation)
Ac-GATNHYKFL-NH2 [TNHY],hydrolysis score from MALDI-TOF screening,[1],0 (a score of 0 if no trace of the product of hydrolysis was seen after 8 hours of incubation)
same,hydrolysis score from MALDI-TOF screening,[2],0 (a score of 0 if no trace of the product of hydrolysis was seen after 8 hours of incubation)
Ac-GATFHMKFL-NH2 [TFHM],hydrolysis score from MALDI-TOF screening,[1],0 (a score of 0 if no trace of the product of hydrolysis was seen after 8 hours of incubation)
same,hydrolysis score from MALDI-TOF screening,[2],0 (a score of 0 if no trace of the product of hydrolysis was seen after 8 hours of incubation)
Ac-GASAHLKFL-NH2 [SAHL],hydrolysis score from MALDI-TOF screening,[3],0 (a score of 0 if no trace of the product of hydrolysis was seen after 8 hours of incubation)
same,hydrolysis score from MALDI-TOF screening,[4],4 (a score of 4 for detection at 6 hours)
Ac-GASLHKKFL-NH2 [SLHK],hydrolysis score from MALDI-TOF screening,[3],3 (a score of 3 for detection at 8 hours)
same,hydrolysis score from MALDI-TOF screening,[4],4 (a score of 4 for detection at 6 hours)
Ac-GASSHHKFL-NH2 [SSHH],hydrolysis score from MALDI-TOF screening,[3],0 (a score of 0 if no trace of the product of hydrolysis was seen after 8 hours of incubation)
same,hydrolysis score from MALDI-TOF screening,[4],3 (a score of 3 for detection at 8 hours)
Ac-GATGHDKFL-NH2 [TGHD],hydrolysis score from MALDI-TOF screening,[1],0 (a score of 0 if no trace of the product of hydrolysis was seen after 8 hours of incubation)
same,hydrolysis score from MALDI-TOF screening,[2],0 (a score of 0 if no trace of the product of hydrolysis was seen after 8 hours of incubation)
Ac-GATQHTKFL-NH2 [TQHT],hydrolysis score from MALDI-TOF screening,[1],0 (a score of 0 if no trace of the product of hydrolysis was seen after 8 hours of incubation)
same,hydrolysis score from MALDI-TOF screening,[2],0 (a score of 0 if no trace of the product of hydrolysis was seen after 8 hours of incubation)
